Measured values from patent US20160047805A1, “IN SITU-DILUTION METHOD AND SYSTEM FOR MEASURING MOLECULAR AND CHEMICAL INTERACTIONS” (FLIR SYSTEMS, INC., priority 2010, published 2016).

Tests used:
[1] = tested on: immobilized carbonic anhydrase; experiment: SPR kinetic analysis, traditional (stepped/sequential multiple) injection method, thermodynamic analysis; conditions: HEPES buffer saline pH 7.4, 10, 20, 30, 40 C, 1:1 binding model
Protocol: (§1) In Example 1, the kinetic values for the interaction between carboxybeneze sulfonamide and immobilized carbonic anhydrase were determined using a standard multiple injection method and the in situ dilution method described herein. In the classical approach sequential injection method (FIGS. 4A-4D) a series of individual concentrations were prepared as a serial doubling dilution set starting from a neat concentration of 40 mM giving a total of nine different concentrations. These concentrations were made up in the running buffer (i.e HEPES buffer saline, pH 7.4). […] of each sample was injected at […] and allowed dissociate for 300 seconds. Each concentration was repeated in duplicate and the entire analysis was repeated at four different analysis temperatures (10 C, 20 C, 30 C, 40 C—FIGS. 4A-D, respectively). […] In this case a total of three interaction curves is recorded at three different temperatures representing a minimal data set that can be recorded at least an order faster than the conventional approach even normalized for the number replicates and the number of temperatures used. A single neat sample (40 mM) was injected using the in-situ-dilution injection and a serial doubling dilution of analyte was performed on-the-fly yielding a dose response curve. Dissociation was monitored for 200 seconds. This was repeated at three different temperatures. A blank injection was also included at each temperature for double referencing.
(§2) In both data sets the samples were injected over a protein coated and a non-coated surface to enable double referencing of the binding response curves. The resulting referenced binding response curves were then fitted with a kinetic 1:1 binding interaction model and the fitted curves are shown in red. The kinetic values were then analyzed thermodynamically to determined thermodynamic constants for the interaction and these are shown in Tables 1 and 2 below.

[2] = tested on: immobilized carbonic anhydrase; experiment: SPR kinetic analysis, in situ dilution injection method, thermodynamic analysis; conditions: three temperatures (10, 25, 35 °C), 1:1 binding model
Protocol: as §1, §2

ΔG‡ Association ([1]; association): 11.60 kcal/mol
ΔH‡ Association ([1]; association): 3.96 kcal/mol
ΔS‡ Association ([1]; association): −26.1 cal/mol K
ΔG‡ Dissociation ([1]; dissociation): 19.32 kcal/mol
ΔH‡ Dissociation ([1]; dissociation): 14.63 kcal/mol
ΔS‡ Dissociation ([1]; dissociation): −16.0 cal/mol K
ΔG‡ Association ([2]; association): 11.1 kcal/mol
ΔH‡ Association ([2]; association): 4.1 kcal/mol
ΔS‡ Association ([2]; association): −24 cal/mol K
ΔG‡ Dissociation ([2]; dissociation): 18.8 kcal/mol
ΔH‡ Dissociation ([2]; dissociation): 13.1 kcal/mol
ΔS‡ Dissociation ([2]; dissociation): −20 cal/mol K
SMILES: NS(=O)(=O)c1ccc(C(=O)O)cc1 [carboxybeneze sulfonamide]
